The source of these data is patent US20140004243A1, “SALTY TASTE ENHANCER” (AJINOMOTO CO., INC., priority 2011, published 2014).

The experiment deals with T1, Human ENaC δ, β and γ subunit (Homo sapiens, UniProt P51168+P51170+P51172).
T1 construct: expressed in transfected cells; host or cells: Xenopus laevis (African clawed frog) oocytes injected with cRNA
T1 sequence (P51172 1-802): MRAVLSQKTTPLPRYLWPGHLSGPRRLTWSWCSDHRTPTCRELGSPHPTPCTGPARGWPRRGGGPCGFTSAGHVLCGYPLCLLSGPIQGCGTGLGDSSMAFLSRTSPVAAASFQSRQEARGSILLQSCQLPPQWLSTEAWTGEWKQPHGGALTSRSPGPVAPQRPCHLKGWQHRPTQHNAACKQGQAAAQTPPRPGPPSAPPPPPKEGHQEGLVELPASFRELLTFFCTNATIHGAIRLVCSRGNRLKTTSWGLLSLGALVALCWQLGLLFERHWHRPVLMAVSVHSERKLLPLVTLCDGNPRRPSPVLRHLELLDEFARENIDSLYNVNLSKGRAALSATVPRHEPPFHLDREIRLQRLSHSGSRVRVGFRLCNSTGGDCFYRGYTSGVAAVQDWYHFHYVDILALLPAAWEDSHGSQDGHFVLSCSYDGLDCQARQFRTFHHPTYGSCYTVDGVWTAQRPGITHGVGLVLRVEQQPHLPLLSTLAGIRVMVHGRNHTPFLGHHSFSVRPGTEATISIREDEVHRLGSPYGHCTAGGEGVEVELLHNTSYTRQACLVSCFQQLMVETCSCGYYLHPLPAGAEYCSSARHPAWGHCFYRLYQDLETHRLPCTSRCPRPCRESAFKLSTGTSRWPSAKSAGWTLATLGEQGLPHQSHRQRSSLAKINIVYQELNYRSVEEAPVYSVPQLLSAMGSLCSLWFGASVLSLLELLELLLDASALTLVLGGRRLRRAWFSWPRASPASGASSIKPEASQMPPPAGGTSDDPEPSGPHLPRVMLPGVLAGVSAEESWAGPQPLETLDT
T1 sequence (P51168 1-640): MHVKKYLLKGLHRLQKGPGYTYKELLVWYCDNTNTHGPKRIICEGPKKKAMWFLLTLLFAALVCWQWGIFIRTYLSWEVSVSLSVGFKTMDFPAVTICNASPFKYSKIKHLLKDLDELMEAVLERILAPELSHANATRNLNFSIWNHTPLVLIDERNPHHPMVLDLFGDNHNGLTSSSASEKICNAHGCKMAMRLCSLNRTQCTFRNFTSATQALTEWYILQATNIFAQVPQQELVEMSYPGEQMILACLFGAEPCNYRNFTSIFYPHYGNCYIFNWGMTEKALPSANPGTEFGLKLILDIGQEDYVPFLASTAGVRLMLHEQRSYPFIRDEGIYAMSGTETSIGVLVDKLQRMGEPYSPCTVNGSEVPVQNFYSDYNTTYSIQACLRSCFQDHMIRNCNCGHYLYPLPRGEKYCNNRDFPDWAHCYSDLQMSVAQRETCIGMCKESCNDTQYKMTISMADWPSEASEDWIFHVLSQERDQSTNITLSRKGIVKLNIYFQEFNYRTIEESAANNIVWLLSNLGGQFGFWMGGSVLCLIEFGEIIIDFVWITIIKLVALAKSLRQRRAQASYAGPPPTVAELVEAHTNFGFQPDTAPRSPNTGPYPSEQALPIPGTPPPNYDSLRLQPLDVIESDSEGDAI
T1 sequence (P51170 1-649): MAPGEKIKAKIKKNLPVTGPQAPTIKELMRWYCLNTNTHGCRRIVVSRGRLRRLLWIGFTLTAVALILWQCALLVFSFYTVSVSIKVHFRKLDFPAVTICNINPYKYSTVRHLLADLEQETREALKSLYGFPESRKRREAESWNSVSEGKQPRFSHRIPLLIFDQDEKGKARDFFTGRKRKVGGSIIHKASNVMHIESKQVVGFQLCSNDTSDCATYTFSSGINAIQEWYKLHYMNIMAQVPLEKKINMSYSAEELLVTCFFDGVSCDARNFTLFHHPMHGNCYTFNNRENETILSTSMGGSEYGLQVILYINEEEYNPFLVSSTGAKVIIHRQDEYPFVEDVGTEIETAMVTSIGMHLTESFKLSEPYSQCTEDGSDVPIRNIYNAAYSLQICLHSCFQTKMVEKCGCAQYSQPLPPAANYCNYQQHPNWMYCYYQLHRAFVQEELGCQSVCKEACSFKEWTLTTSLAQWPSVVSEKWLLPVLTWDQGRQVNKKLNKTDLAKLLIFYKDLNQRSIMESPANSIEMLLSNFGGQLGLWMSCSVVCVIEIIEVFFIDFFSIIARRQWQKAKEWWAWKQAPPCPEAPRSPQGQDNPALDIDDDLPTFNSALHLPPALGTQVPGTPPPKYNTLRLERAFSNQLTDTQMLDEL
The experiment is described as follows: Measurement of ENaC activation potency (MED) in ENaC-expressing oocyte, Two Electrode Voltage Clamp. Particulars: minimum effective dose at which current started to increase; ENaC-expressing African clawed frog oocyte; smaller MED = higher ENaC activation potency. It counts as cell-based. The method, then:
ENaC activation current value, namely, the inward current in ENaC-expressing oocyte was measured as follows.
According to the method described in Motonao Nakamura, Takao Shimizu: Experiment of African clawed frog oocyte, Experimental Medicine Vol. 11, No. 3, 224-232 (1993), oocyte was collected from African clawed frog, […], and the current value was measured by a Two Electrode Voltage Clamp technique. In the present invention, ND96 (96 mM NaCl, 2 mM KCl, 1 mM MgCl2, 5 mM Hepes, 1.8 mM CaCl2, pH 7.6) was used instead of MBS buffer in the above-mentioned document. Injector NANOLITER 2000 manufactured by World Precision Instruments was used for microinjection, OpusXpress 6000A manufactured by Molecular Devices was used for current value measurement by a Two Electrode Voltage Clamp technique, and Clampfit 10.2 software manufactured by Molecular Devices was used for data analysis.
Human ENaC δ, β and γ subunit genes shown by SEQ ID NOs: 1, 2 and 3, respectively, in the Sequence Listing were each cloned into a plasmid vector, and used as a template DNA for cRNA synthesis. cRNA was synthesized using MEGAscript kit manufactured by Ambion and according to the method of the manual of the manufacturer.
A mixture of the same amount of ENaC […] cRNA (0.4 to 0.8 μg/μL), and β and γ subunits cRNA (0.4 μg/μL) was injected into the oocyte of African clawed frog at […] per oocyte, and the oocyte was cultured for 16 hr-72 hr. Thereafter, the oocyte was set on a measuring apparatus OpusXpress 6000A, the electrodes were inserted into the oocyte, the voltage was clamped at a level lower by −30 mV than the resting membrane potential by a Two Electrode Voltage Clamp technique, and the current value was measured.
To measure the ENaC activation potency, oocyte was stimulated with each test compound, and the minimum effective dose (hereinafter to be abbreviated as MED) of the compound at the time point when the electric current started to increase was measured. In this case, whichever smaller value of the minimum effective dose of the stimulation compound that increased the current value by not less than 10%, and the minimum effective concentration of the compound that increased, by not less than 25%, the electric current increase value due to the stimulation by 5 μM capsazepine (CAS NO.: 138977-28-3), as compared to the current value before addition of the compound and without stimulation, was taken as MED. A smaller MED means higher ENaC activation potency.
Each test compound was directly dissolved in ND96, or first dissolved in dimethyl sulfoxide (DMSO) to 100 mM, and then prepared by diluting the solution with ND96 to a concentration used for the evaluation. The concentration of the test compound in ND96 was prepared to various concentrations within the range of 0.1 nM to 300 μm.
ND96 as a perfusion fluid was flown at a rate of 0.5 mL/min through the measuring apparatus OpusXpress 6000A on which ENaC-expressing oocyte was set, the perfusion fluid was temporarily stopped every 3 minutes to add a test compound solution (0.25 mL) dissolved in ND96 at a rate of 0.5 mL/min. In this way, the test compound was contacted with ENaC-expressing oocyte, and whether ENaC is activated by the compound was examined by measuring the current value. After addition of the test compound, feeding of the perfusion fluid was resumed to wash away the compound to be ready for the next addition of the compound.
The compound was added successively from a low concentration to a high concentration to stimulate ENaC-expressing oocyte. The concentrations actually added was, for example, 1 nM, 3 nM, 10 nM, 30 nM, 100 nM, 300 nM; 1 μM, 3 μM, 10 μm, 30 μm, 100 μm, 300 μm; 1.2 μM, 6 μM, 30 μm, 150 μm of one test compound. The compound was added from low concentrations to high concentrations at 3 min intervals. […]
Turning to `S=C(NCCc1ccccc1)NCCc1ccccc1` [Example 13], the MED is 10 µM.

`CS(=O)(=O)Nc1cccc(CNC(=S)NCCc2ccccc2)c1` [Example 86, 1-[3-(mesylamino)benzyl]-3-(2-phenylethyl)thiourea] yielded an MED of 1 µM.

On to `COc1cccc(OC)c1CNNC(=S)N[C@H](C)c1ccccc1` [Example 93, 1-(2,6-dimethoxybenzyl)-4-((R)-1-phenylethyl)thiosemicarbazide], for which the MED is 30 µM.

`Cc1ccc(O)c(C(O)CNC(=S)N[C@H](C)c2cccc(O)c2)c1` (stereo partly drawn) [Example 113] showed an MED of 0.3 µM.

Regarding `Oc1cc2c(cc1O)CN(C(=S)NCCc1ccc(Cl)cc1)CC2` [Example 2], the MED came out at 3 µM.

For the compound `Oc1cccc(CNC(=S)NCCc2ccccc2)c1` [Example 44], the MED was 1 µM.

Compound `C[C@@H](NC(=S)NCCc1ccccc1O)c1cccc(O)c1` [Example 89, 1-[2-(2-hydroxyphenyl)ethyl]-3-[(R)-1-(3-hydroxyphenyl)ethyl]thiourea] registered an MED of 0.06 µM.

On to `OC[C@H](Cc1ccccc1)NC(=S)NCc1ccccc1` [Example 57], for which the MED came to 1 µM.

For `S=C(NCCc1ccccc1)N1Cc2ccccc2C1` [Example 55], the MED worked out at 30 µM.

Compound `S=C(NCc1ccccc1)N1CCc2ccccc2C1` [Example 27] gave an MED of 10 µM.

Compound `COc1ccc(CCNC(=S)NCc2ccccc2)cc1` [Example 16] yielded an MED of 3 µM.

`S=C(NCCc1ccccc1)NCc1cccnc1` [Example 31] had an MED of 1 µM.

Take `NC(=O)CNC(=S)NCc1ccccc1` [Example 53]: the MED worked out at 30 µM.

Turning to `C[C@@H](NC(=S)N[C@H](Cc1ccc(O)cc1)C(=O)O)c1cccc(O)c1` [Example 109], the MED amounted to 0.3 µM.

`Cc1ccc(S(=O)(=O)Nc2cccc(CNC(=S)NCCc3ccccc3)c2)cc1` [Example 87] returned an MED of 10 µM.

Turning to `Oc1cc(O)cc(CNC(=S)NCCc2ccccc2)c1` [Example 68], the MED worked out at 3 µM.

`S=C(NCCc1ccccc1)NCc1nc2ccccc2[nH]1` [Example 33] yielded an MED of 3 µM.

Regarding `Oc1ccc(CNC(=S)NCCc2ccccc2)cc1` [Example 43], the MED is 1 µM.

Regarding `C[C@@H](NC(=S)NN)c1ccccc1` [Example 36], the MED turned out to be 30 µM.

Consider `COc1ccccc1CNC(=S)NCCc1ccccc1` [Example 28], for which the MED fell in the range of 1 to 3 µM.

Turning to `O=C(O)c1ccc(CNC(=S)NCCc2ccccc2)cc1` [Example 23], the MED worked out at 10 µM.

In turn, `S=C(NCCc1ccccc1)Nc1ccccc1` [Example 9] had an MED of 3 µM.

For the compound `CN(CCc1ccccc1)C(=S)Nc1ccc(O)cc1C(=O)O` [Example 120], the MED is 0.1 to 0.3 µM.

`S=C(NCCc1ccccc1Cl)NCc1ccccc1` [Example 73] displayed an MED of 3 to 10 µM.

With `C[C@@H](NC(=S)NCCc1ccccc1C(=O)O)c1cccc(O)c1` [Example 125, 2-(2-{3-[(R)-1-(3-hydroxyphenyl)ethyl]thioureido}ethyl)benzoic acid], the MED was 0.06 to 0.1 µM.

In the case of `COC[C@@H](Cc1ccccc1)NC(=S)NCc1ccccc1` [Example 84], the MED came to 10 µM.

`Oc1ccc(CNC(=S)NCCc2ccccc2)cc1O` [Example 40, 1-(3,4-dihydroxybenzyl)-3-(2-phenylethyl)thiourea] registered an MED of 1 µM.

For the compound `CC(C)(C)OC(=O)NCC(=O)Nc1cccc(CNC(=S)NCCc2ccccc2)c1` [Example 82, tert-butyl (3-{[3-(2-phenylethyl)thioureido]methyl}phenylcarbamoyl)methylcarbamate], the MED was determined as 3 µM.

Compound `C[C@@H](NC(=S)NCCc1ccccc1O)c1ccccc1` [Example 85] returned an MED of 0.6 µM.

As for `CN(CCc1ccccc1O)C(=S)Nc1ccc(O)cc1C(=O)O` [Example 124], the MED is 0.3 µM.

Regarding `S=C(NCCc1ccccc1)NCc1ccco1` [Example 21], the MED came out at 1 µM.

Compound `OC[C@H](NC(=S)NCCc1ccccc1)c1ccccc1` [Example 50] yielded an MED of 3 µM.

With `S=C(CCc1ccccc1)NCCc1ccccc1` [Example 81], the MED came out at 10 µM.
